Test results published in US20160113931A1, “Method of treating and/or preventing neurodegenerative diseases” (University of Macau, priority 2014, published 2016).

Assays:
zebrafish [1] = assay: MPTP-induced dopaminergic neuron loss in zebrafish (TH whole-mount immunostaining); assay type: in vivo, Danio rerio; details: positive control, MPTP 48 h
Description: Zebrafish at 1 dpf were exposed to BHDPC (3, 10, 30 μM) with or without MPTP for 48 h. Then fish were fixed for whole mount immunostaining. The morphology change of dopaminergic neurons in zebrafish brain was indicated by immunostaining with antibody against tyrosine hydroxylase (TH). Statistical analysis of TH density was accessed in each 10 fish/group. […] Zebrafish at 1 dpf were exposed to different concentrations of BHDPC with or without MPTP for 48 h. Then fish were fixed for whole mount immunostaining.
(§1) The AB strain of wild type zebrafish (Danio rerio) was maintained as described in the Zebrafish Handbook. Zebrafish were staged by days post fertilization […]. For breeding, groups of male and female (3:2) adult zebrafish were placed in 10-L plastic aquarium equipped with spawning nets in the evening. In the following morning, eggs were collected from the breeding group tanks. Normally developed fertilized eggs were selected under a stereomicroscope for further studies. The MPTP manipulation was performed with appropriate safety precautions and all MPTP-containing water was bleached.
Whole-mount immunostaining in zebrafish was performed as previously described. 3 dpf Zebrafish larvae were fixed with 4% paraformaldehyde in PBS for 30 min, […] (TH) staining was performed as previously described. Briefly, zebrafish were fixed in 4% paraformaldehyde in PBS for 5 h. Fixed samples were blocked (2% lamb serum and 0.1% BSA in PBST) for 1 h at room temperature. A mouse monoclonal anti-tyrosine hydroxylase (TH) antibody (Millipore, Billerica, MD, USA) was used as the primary antibody and incubated with samples overnight at 4° C. On the next day, samples were washed six times with PBST (each wash lasted 30 min), followed by incubation with Alexa Fluor® 488 goat anti-mouse antibodies. After immunostaining, zebrafish were mounted with 3.5% methylcellulose and photographed. Semi-quantification of the area of TH^+ cells was assessed by an investigator, unaware of the drug treatment, using Image-J software. Results are expressed as percentage of area of TH^+ cells in untreated normal control groups.
In this example, the in vivo animal model was used to determine the neuroprotective effect of BHDPC. Anti-tyrosine hydroxylase (TH) whole mount immunostaining was used to determine dopaminergic neuronal populations in zebrafish larvae (FIG. 15A). TH activity is the key enzyme responsible for dopamine biosynthesis in the CNS. […] The dopamine reuptake inhibitor nomifensine (Nom), which protected against MPTP-induced neurotoxicity in vivo was used as a positive control. The treatment of larvae with 30 μM of nomifensine, a positive control drug attenuated MPTP-induced neurotoxicity, with TH^+ density […] by 30% compared to the MPTP group.
L-deprenyl, which is a substituted phenethylamine used in treatment of early Parkinson's disease, was used as a positive control.

zebrafish [2] = assay: MPTP-induced deficit of locomotion behavior in zebrafish larvae; assay type: in vivo, Danio rerio; details: 150 μM L-dopa with MPTP, positive control
Description: Three dpf zebrafish embryos were co-incubated with 10 μM MPTP and BHDPC at the indicated concentrations for 96 hours, and zebrafish larval co-treated with MPTP and 150 μM L-dopa was used as positive control. After treatment, zebrafish were collected to perform locomotion behavior test using Viewpoint Zebrabox system and total distances travelled in 10 min were calculated.
as §1
In addition, MPTP markedly altered the swimming behavior of the zebrafish as a consequence of DA neuronal injury. […] BHDPC ameliorated MPTP-induced deficit of swimming behavior. At the same condition, MPTP-induced deficit of swimming behavior were rescued by positive controls, levodopa (L-dopa) (FIG. 16).

Question: With `C#CCN(C)[C@H](C)Cc1ccccc1` [L-deprenyl, reference compound] as the compound, how does the “TH+ density compared to the MPTP group (FIG. 15B)” value (zebrafish [1]) read?
Answer: significant increase

Question: `N[C@@H](Cc1ccc(O)c(O)c1)C(=O)O` [levodopa, reference compound] was tested. Which “MPTP-induced deficit of swimming behavior (total distance travelled in 10 min)” value (zebrafish [2]) did it give?
Answer: rescued

Question: With `CN1Cc2c(N)cccc2C(c2ccccc2)C1` (stereo not drawn) [nomifensine, reference compound] as the compound, how does the “TH+ density reduced by, compared to the MPTP group” value (zebrafish [1]; 30 μM nomifensine) read?
Answer: 30%
